# Test results reported in patent US20090192209A1, “Extended treatment of tumors through vessel occlusion with light activated drugs” (Light Sciences Oncology, Inc., priority 2004, published 2009).
# Columns and labels:
# [1] = system: targeted tumors, including liver metastases arising from various primaries; details: clinical tests, PDT; Cancer 2003; 98:1767-71; cited from earlier work
# [2] = system: R1 rhabdomyosarcoma tumor fragment implanted in liver; assay: PDT with single implanted LED light source proximal to tumor-feeding vessel in rat liver tumor model; format: in vivo, WAG/Rij rats
# Procedure: A study was carried out to explore whether placement of a single light source in proximity to an identified tumor-feeding vessel could result in effective treatment of larger volumes of the organ in which there was neoplasia than might be achieved using direct PDT on tumor tissue itself.
# Methods. The liver of each of 20 WAG/Rij rats was implanted with a R1 rhabdomyosarcoma tumor fragment. […] A 10×1.5 mm LED light source was implanted in the liver proximal to an upstream feeding vessel. LEDs were placed at a distance ≧5 mm from the tumor to ensure that the tumor itself was outside the direct illumination effect of the PDT. After a 10-minute drug-light interval, a light dose totaling 200 J/cm was administered. Animals were sacrificed at various time points, up to 10 days post treatment, and the extent and the mechanism of cell death was evaluated histologically using TUNEL [TdT-mediated dUTP-X nick end labeling] and EM [Electron Microscopy].
structure (smiles),measurement,setting,value
C=Cc1c(C)c2cc3nc(c(CC(=O)N[C@@H](CC(=O)O)C(=O)O)c4[nH]c(cc5nc(cc1[nH]2)C(C)=C5CC)c(C)c4C(=O)O)[C@@H](CCC(=O)O)[C@@H]3C [Talaporfin Sodium],objective response rates in targeted tumors,[1],33-50%
same,"cell death in tumors implanted downstream from the targeted vessel (TUNEL, EM)","[2]; 5 mg/kg i.v. tail vein, 10-minute drug-light interval, 200 J/cm, LED ≧5 mm from tumor",cell death was consistently induced by a predominantly apoptotic mechanism
same,cell death in tumors similarly close to light source but vascularized by vessels other than the one targeted,"[2]; 5 mg/kg i.v., 200 J/cm",no cell death was observed
same,time cell death first observed after PDT (TUNEL),"[2]; 5 mg/kg i.v., 200 J/cm, tumors downstream from targeted vessel",2 days
same,closure of larger blood vessels / extended PDT effect,[2]; dosed at 2 mg/kg or less,not sufficient to close larger blood vessels
same,extent of PDT treatment effect,[2]; dosed at 2 mg/kg or less,restricted to the immediate vicinity of the illumination
